Legend:
[1] = system: CNV lesions; experiment: Measurement of the CNV size by choroidal flat mount; format: in vivo, mice expressing human HLA-A*0201
Description: (§1) C57bl/6 mice with body weight of 20 g to 25 g were obtained from CLEA Japan (Tokyo, Japan). All experiments were conducted in accordance with the Animal Care and Use Committee and the Statement for the Use of Animals in Ophthalmic and Vision Research by the Association for Research in Vision and Opthalmology. Mice used in the experiments express human HLA-A*0201.
(§2) The mice were separated into three groups. PBS, an immunity adjuvant (incomplete Freund's adjuvant (IFA)), or a suspension of a human VEGF receptor 2-derived antigenic peptide and IFA was injected subcutaneously into the axillae twice (day 0 and day 10). […] Subsequently, on day 20, CNV was induced at three sites in both eyes using a semiconductor laser set to φ 200 μm, 200 mW, and 0.02 seconds.
(§3) Experimental CNV was induced as described elsewhere with minor modifications. In short, general anesthesia was induced with an intraperitoneal injection (1 mL/kg) of a mixture (1:1) of ketamine hydrochloride (Ketalar®, Sankyo, Tokyo, Japan) and xylazine hydrochloride (Celactal®, Bayer, Tokyo, Japan). The pupil was dilated using one drop of 0.5% tropicamide (Mydrin® M, Santen Pharmaceutical, Osaka, Japan) for photocoagulation. Six laser photocoagulations were applied to each eye between the major retinal vessels around the optic disc with a diode laser photocoagulator (DC-3000®, NIDEK, Osaka, Japan) and a slit lamp delivery system (SL150, Topcon, Tokyo, Japan) at a spot size of […], duration of 0.02 seconds, and intensity of 200 mW.
A total of 36 mice were used for choroidal flat mount analysis (the number of mice from each group on the third day and the seventh day was 4 and 8, respectively). Three days and seven days after laser treatment, the size of CNV lesion was evaluated using choroidal flat mounts as previously described. The mice were anesthetized and perfused with 1 mL of phosphate buffered saline (PBS) containing 50 mg/mL FITC-conjugated dextran (4.4 kDa, 50 mg/kg body weight; Sigma). Then, the eyes were enucleated, and the cornea and lens were removed, and the entire retina was carefully dissected from the eye cup. Radial cuts were made from the edges of the equator, and the eyecup was flat-mounted on a glass slide with the sclera facing down. The flat-mounted sections were observed under a fluorescence microscope (Olympus DPSO), and the images were captured using a CCD camera. The data were imported into a computer using a software system (Studio lite). […] The data were expressed as mean±standard error.
(§4) The fluorescein fluorescent fundus angiography scores were evaluated using Mann-Whitney U test. The size of CNV lesion was evaluated by ANOVA followed by Dunnett's post hoc test. […]

[2] = system: CNV lesions; experiment: Evaluation of the grade of CNV by fluorescein angiography (leakage from laser-induced CNV lesions); format: in vivo, mice expressing human HLA-A*0201
Description: as §1, §2, §3
Three and seven days after CNV induction (on day 23 and day 27), a total of 169 animals were used to examine the effect on leakage from the CNV lesions (on the third day, the number of animals from the control group, low-dose group, and high-dose group was 41, 34, and 18, respectively; on the seventh day, the number of animals from the control group, low-dose group, and high-dose group was 51, 15, and 10, respectively). […]
as §4

[3] = system: VEGF; experiment: VEGF up-regulation in experimental CNV; settings: in vivo
[4] = system: tumor model; settings: cited from earlier work
[5] = seventh day, low-dose group vs control group

Which CNV growth ([1]; in vivo, effect observed only on the seventh day and not on the third day) does the source give for “VIAMFFWLL (IFA emulsion; listed as Homo sapiens) [nine amino acids from position 773 of human VEGFR-2; injected as a suspension with IFA]” here?
The CNV growth was “inhibits CNV growth”.

What about the CNV lesion size ([1]; seventh day, high-dose group vs control group) of the same sequence?
Its CNV lesion size is “significantly decreased”.

And the CNV lesion size [1, 5]?
The CNV lesion size was “significantly decreased”.

And the CNV lesion size ([1]; third day, low-dose and high-dose groups vs control group)?
The CNV lesion size was “No difference was observed”.

What about the “fluorescein leakage from the CNV lesions” value ([2]; seventh day, high-dose group vs control) of the same sequence?
Its value is “lower”.

What about the “leakage from CNV lesions” value [2, 5] of the same sequence?
Its value is “not statistically significant, the leakage from CNV lesions was lower”.

What about the “degree of fluorescein leakage from CNV lesions” value ([2]; third day after CNV induction, low-dose and high-dose groups vs control group, s.c. injection day 0 and day 10) of the same sequence?
The value was “no difference was observed”.

What about the VEGF up-regulation [3] of the same sequence?
Its VEGF up-regulation is “suppresses VEGF up-regulation”.

What about the antiangiogenic effect [4] of the same sequence?
The antiangiogenic effect was “confirmed to have antiangiogenic effect”.
